Laboratory results published in article PMC5720837, “Identification of a 4-fluorobenzyl L-valinate amide benzoxaborole (AN11736) as a potential development candidate for the treatment of Animal African Trypanosomiasis (AAT)” (Bioorganic & Medicinal Chemistry Letters, 2018).

The molecules below were run on Trypanosoma vivax (T. vivax STIB719/ILRAD 560 strain), bloodstream form (assay: Whole cell Alamar Blue assay, T. vivax (48 h ex vivo)). Conditions: Trypanosoma vivax; T. vivax STIB719/ILRAD 560, 48 h ex vivo Alamar Blue assay.
Assay type: cell-based
Procedure: (§1) Activity of compounds 1–71 against T. congolense and T. vivax was determined using the whole cell assays as described ^6 and their IC50 values are summarized in Table 1.
(§2) [6] Assay methods for determination of T. c. and T. v. […] Culture media consisted of complete HMI-9 (IMDM) with 20% bovine serum. To ensure log growth phase, trypanosomes were sub-cultured at appropriate dilutions every 2–3 days. Bloodstream form Trypanosoma vivax (T. vivax) cannot be cultured axenically, therefore trypanosomes (T. vivax STIB719/ILRAD 560 strain) were harvested from a highly parasitemia mouse via cardiac puncture and used directly in the ex vivo drug sensitivity assay on the same day. […] Parasite starting concentrations of 2 × 10^5 (T. c.) and 4 × 10^5 (T. v.) were calculated respectively, using a cell analyzer system or haemo-cytometer, followed by quantification at 536 nm excitation and 588 nm emission wavelengths using a […] reader. Test compounds were prepared as 10 mg/mL DMSO stocks for each assay run. Compounds were assayed in at least three separate, independent test runs and an 11-point dilution curve was used to determine the IC50 values. Data points were averaged to generate sigmoidal dose-response curves and IC50 values were determined using Softmax Pro 5.2 software.
For `Cc1c(C(=O)N[C@H](C(=O)OCc2ccc(F)cc2)C2CC2)ccc2c1B(O)OC2` [Compound 28], the IC50 was 0.38 nM. In the case of `Cc1c(C(=O)NC2(C(=O)OCc3ccc(F)cc3)CCC2)ccc2c1B(O)OC2` [Compound 32], the IC50 is reported as 2.5 nM. Molecule `Cc1c(C(=O)N[C@H](C(=O)OCc2ccccn2)C(C)C)ccc2c1B(O)OC2` [Compound 36] has an IC50 of 0.14 nM. Molecule `Cc1c(C(=O)N[C@H](C(=O)OCc2cccnc2)C(C)C)ccc2c1B(O)OC2` [Compound 37] has an IC50 of 0.5 nM. `Cc1c(C(=O)N[C@H](C(=O)OCc2ccncc2)C(C)C)ccc2c1B(O)OC2` [Compound 38] showed an IC50 of 0.31 nM. Work on `Cc1c(C(=O)N[C@H](C(=O)OCc2ncc(F)cn2)C(C)C)ccc2c1B(O)OC2` [Compound 40] yielded an IC50 of 0.5 nM. Molecule `Cc1c(C(=O)N[C@H](C(=O)OCc2nccs2)C(C)C)ccc2c1B(O)OC2` [Compound 42] has an IC50 of 0.19 nM. Work on `Cc1c(C(=O)N[C@H](C(=O)OCc2c[nH]cn2)C(C)C)ccc2c1B(O)OC2` [Compound 44] yielded an IC50 of 980 nM. `Cc1c(C(=O)N[C@H](C(=O)OCc2ccc3ccccc3n2)C(C)C)ccc2c1B(O)OC2` [Compound 45] showed an IC50 of 0.33 nM. With `Cc1c(C(=O)N[C@H](C(=O)OC(C)C)C(C)C)ccc2c1B(O)OC2` [Compound 56] the IC50 was 14 nM. `Cc1c(C(=O)N[C@H](C(=O)OCC(C)C)C(C)C)ccc2c1B(O)OC2` [Compound 57] was tested, and the IC50 was 0.26 nM. For `Cc1c(C(=O)N[C@H](C(=O)OC2CCC2)C(C)C)ccc2c1B(O)OC2` [Compound 58], the IC50 was 0.69 nM. Work on `Cc1c(C(=O)N[C@H](C(=O)OC2CCCC2)C(C)C)ccc2c1B(O)OC2` [Compound 59] yielded an IC50 of 0.52 nM. With `Cc1c(C(=O)N[C@H](C(=O)OC2CCCCC2)C(C)C)ccc2c1B(O)OC2` [Compound 60] the IC50 was 0.78 nM. For `Cc1c(C(=O)N[C@H](C(=O)OCC2CCCC2)C(C)C)ccc2c1B(O)OC2` [Compound 61], the IC50 was 0.21 nM. Molecule `Cc1c(C(=O)N[C@H](C(=O)OCCN2CCOCC2)C(C)C)ccc2c1B(O)OC2` [Compound 64] has an IC50 of 0.78 nM. In the case of `Cc1c(C(=O)N[C@H](C(=O)OCCN2CCCC2)C(C)C)ccc2c1B(O)OC2` [Compound 65], the IC50 is reported as 1.2 nM. In the case of `Cc1c(C(=O)N[C@H](C(=O)OCC2CCN(C)CC2)C(C)C)ccc2c1B(O)OC2` [Compound 66], the IC50 is reported as 4.1 nM. In the case of `Cc1c(C(=O)N[C@H](C(=O)OCCc2ccc(F)cc2)C(C)C)ccc2c1B(O)OC2` [Compound 67], the IC50 is reported as 0.79 nM. In the case of `Cc1c(C(=O)N[C@H](C(=O)OC2COC2)C(C)C)ccc2c1B(O)OC2` [Compound 68], the IC50 is reported as 37 nM.

These molecules were tested on Trypanosoma congolense (T. congolense IL-3000 strain), bloodstream form (assay: Whole cell Alamar Blue assay, T. congolense (72 h in vitro)). Conditions: Trypanosoma congolense, 72 h, T. congolense IL-3000, 72 h in vitro Alamar Blue assay.
Assay type: cell-based
Procedure: as §1, §2
`Cc1c(C(=O)N[C@H](C(=O)OCc2ccc(F)cc2)C2CC2)ccc2c1B(O)OC2` [Compound 28] gave an IC50 of 0.12 nM. With `Cc1c(C(=O)NC2(C(=O)OCc3ccc(F)cc3)CCC2)ccc2c1B(O)OC2` [Compound 32] the IC50 was 0.45 nM. `Cc1c(C(=O)N[C@H](C(=O)OCc2ccccn2)C(C)C)ccc2c1B(O)OC2` [Compound 36] gave an IC50 of 0.26 nM. `Cc1c(C(=O)N[C@H](C(=O)OCc2cccnc2)C(C)C)ccc2c1B(O)OC2` [Compound 37] showed an IC50 of 0.78 nM. In the case of `Cc1c(C(=O)N[C@H](C(=O)OCc2ccncc2)C(C)C)ccc2c1B(O)OC2` [Compound 38], the IC50 is reported as 0.68 nM. For `Cc1c(C(=O)N[C@H](C(=O)OCc2ncc(F)cn2)C(C)C)ccc2c1B(O)OC2` [Compound 40], the IC50 was 0.27 nM. `Cc1c(C(=O)N[C@H](C(=O)OCc2nccs2)C(C)C)ccc2c1B(O)OC2` [Compound 42] gave an IC50 of 0.2 nM. For `Cc1c(C(=O)N[C@H](C(=O)OCc2cscn2)C(C)C)ccc2c1B(O)OC2` [Compound 43], the IC50 was 0.062 nM. For `Cc1c(C(=O)N[C@H](C(=O)OCc2c[nH]cn2)C(C)C)ccc2c1B(O)OC2` [Compound 44], the IC50 was 5000 nM. Work on `Cc1c(C(=O)N[C@H](C(=O)OCc2ccc3ccccc3n2)C(C)C)ccc2c1B(O)OC2` [Compound 45] yielded an IC50 of 0.37 nM. `Cc1c(C(=O)N[C@H](C(=O)OC(C)C)C(C)C)ccc2c1B(O)OC2` [Compound 56] was tested, and the IC50 was 5.2 nM. In the case of `Cc1c(C(=O)N[C@H](C(=O)OCC(C)C)C(C)C)ccc2c1B(O)OC2` [Compound 57], the IC50 is reported as 0.46 nM. Work on `Cc1c(C(=O)N[C@H](C(=O)OC2CCC2)C(C)C)ccc2c1B(O)OC2` [Compound 58] yielded an IC50 of 0.66 nM. For `Cc1c(C(=O)N[C@H](C(=O)OC2CCCC2)C(C)C)ccc2c1B(O)OC2` [Compound 59], the IC50 was 0.7 nM. For `Cc1c(C(=O)N[C@H](C(=O)OC2CCCCC2)C(C)C)ccc2c1B(O)OC2` [Compound 60], the IC50 was under 0.005 nM. In the case of `Cc1c(C(=O)N[C@H](C(=O)OCC2CCCC2)C(C)C)ccc2c1B(O)OC2` [Compound 61], the IC50 is reported as 0.36 nM. `Cc1c(C(=O)N[C@H](C(=O)OCCN2CCOCC2)C(C)C)ccc2c1B(O)OC2` [Compound 64] gave an IC50 of 2.3 nM. Molecule `Cc1c(C(=O)N[C@H](C(=O)OCCN2CCCC2)C(C)C)ccc2c1B(O)OC2` [Compound 65] has an IC50 of 9.4 nM. Work on `Cc1c(C(=O)N[C@H](C(=O)OCC2CCN(C)CC2)C(C)C)ccc2c1B(O)OC2` [Compound 66] yielded an IC50 of 5.9 nM. Work on `Cc1c(C(=O)N[C@H](C(=O)OCCc2ccc(F)cc2)C(C)C)ccc2c1B(O)OC2` [Compound 67] yielded an IC50 of 0.43 nM. `Cc1c(C(=O)N[C@H](C(=O)OC2COC2)C(C)C)ccc2c1B(O)OC2` [Compound 68] showed an IC50 of 1.8 nM.
